In one experiment the test system is PRKACA (mouse). The conditions noted are these: compound 10.0 µM; accession and sequence are those of the human protein.
In another experiment the target is PRKAA2 (human) (UniProt P54646). Conditions: compound 10.0 µM.
The next experiment addresses PRKAA1 (human) (UniProt Q13131). Conditions: compound 10.0 µM.
The next experiment has as its target FGFR1 (human) (UniProt P11362). The conditions noted are these: compound 10.0 µM.
A further experiment has as its target PIM1 (human) (UniProt P11309). The conditions noted are these: compound 10.0 µM.
For another experiment, the target named is AKT1 (human) (UniProt P31749). Conditions: compound 10.0 µM.
Sequence of AKT1 (human) (P31749 whole entry, looked up): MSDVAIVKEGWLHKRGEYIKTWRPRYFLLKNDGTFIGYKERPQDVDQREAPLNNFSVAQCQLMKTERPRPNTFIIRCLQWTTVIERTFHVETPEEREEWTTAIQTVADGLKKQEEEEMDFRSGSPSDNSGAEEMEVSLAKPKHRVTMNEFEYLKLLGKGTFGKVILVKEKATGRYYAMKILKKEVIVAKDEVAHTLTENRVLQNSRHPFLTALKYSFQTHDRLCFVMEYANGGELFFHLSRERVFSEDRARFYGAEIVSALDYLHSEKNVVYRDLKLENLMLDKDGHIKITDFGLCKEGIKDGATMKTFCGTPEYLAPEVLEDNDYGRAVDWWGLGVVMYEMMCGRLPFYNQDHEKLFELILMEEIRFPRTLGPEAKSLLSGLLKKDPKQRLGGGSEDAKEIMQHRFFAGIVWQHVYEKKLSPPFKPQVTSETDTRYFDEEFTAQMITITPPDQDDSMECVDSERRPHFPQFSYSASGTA

Molecules are shown by their SMILES.

Sequence of PIM1 (human) (P11309 whole entry, looked up): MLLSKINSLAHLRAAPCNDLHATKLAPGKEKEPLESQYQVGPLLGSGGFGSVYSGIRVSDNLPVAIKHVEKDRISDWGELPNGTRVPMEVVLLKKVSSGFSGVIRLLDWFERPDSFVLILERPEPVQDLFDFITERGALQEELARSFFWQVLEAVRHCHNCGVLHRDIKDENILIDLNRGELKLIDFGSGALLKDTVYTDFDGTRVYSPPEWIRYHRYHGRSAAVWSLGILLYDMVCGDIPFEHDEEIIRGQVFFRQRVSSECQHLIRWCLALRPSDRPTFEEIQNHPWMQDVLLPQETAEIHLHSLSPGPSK
Sequence of PRKAA1 (human) (Q13131 whole entry, looked up): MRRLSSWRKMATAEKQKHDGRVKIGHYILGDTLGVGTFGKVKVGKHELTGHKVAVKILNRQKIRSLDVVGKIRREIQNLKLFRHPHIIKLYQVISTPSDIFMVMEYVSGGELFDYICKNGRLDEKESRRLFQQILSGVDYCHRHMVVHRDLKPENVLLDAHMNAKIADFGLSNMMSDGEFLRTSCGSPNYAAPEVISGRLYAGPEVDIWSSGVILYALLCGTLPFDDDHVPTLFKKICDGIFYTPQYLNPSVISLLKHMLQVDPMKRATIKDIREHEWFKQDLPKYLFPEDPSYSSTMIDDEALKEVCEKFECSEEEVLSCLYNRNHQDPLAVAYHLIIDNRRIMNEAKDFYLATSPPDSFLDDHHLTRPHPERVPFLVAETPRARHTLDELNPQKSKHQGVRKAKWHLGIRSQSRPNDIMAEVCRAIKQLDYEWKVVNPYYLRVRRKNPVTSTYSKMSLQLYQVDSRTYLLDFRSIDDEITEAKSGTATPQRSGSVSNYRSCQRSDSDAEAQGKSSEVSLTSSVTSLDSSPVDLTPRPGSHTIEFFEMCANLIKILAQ
Sequence of FGFR1 (human) (P11362 whole entry, looked up): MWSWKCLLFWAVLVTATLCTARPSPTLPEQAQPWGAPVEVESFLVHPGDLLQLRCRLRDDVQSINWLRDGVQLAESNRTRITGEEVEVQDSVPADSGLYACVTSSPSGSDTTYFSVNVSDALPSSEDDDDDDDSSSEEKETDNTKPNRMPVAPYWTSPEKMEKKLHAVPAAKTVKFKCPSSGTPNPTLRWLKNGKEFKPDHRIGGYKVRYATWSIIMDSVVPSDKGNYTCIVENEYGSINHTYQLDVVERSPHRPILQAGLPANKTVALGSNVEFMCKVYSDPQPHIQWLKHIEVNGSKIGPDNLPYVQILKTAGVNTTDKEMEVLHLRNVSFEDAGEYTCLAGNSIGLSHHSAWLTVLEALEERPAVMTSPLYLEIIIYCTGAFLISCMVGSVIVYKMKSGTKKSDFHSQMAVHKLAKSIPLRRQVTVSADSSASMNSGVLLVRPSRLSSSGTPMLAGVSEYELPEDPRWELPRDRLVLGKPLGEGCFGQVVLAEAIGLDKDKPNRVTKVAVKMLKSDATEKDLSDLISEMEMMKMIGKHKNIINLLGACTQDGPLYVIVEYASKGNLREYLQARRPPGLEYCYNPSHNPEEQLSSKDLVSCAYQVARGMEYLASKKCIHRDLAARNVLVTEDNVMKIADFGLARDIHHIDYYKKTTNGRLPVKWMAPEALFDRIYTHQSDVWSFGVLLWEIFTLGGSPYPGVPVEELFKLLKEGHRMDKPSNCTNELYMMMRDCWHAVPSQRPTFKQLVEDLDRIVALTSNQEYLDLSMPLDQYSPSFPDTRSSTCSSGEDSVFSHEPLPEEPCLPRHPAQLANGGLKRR
Sequence of PRKAA2 (human) (P54646 whole entry, looked up): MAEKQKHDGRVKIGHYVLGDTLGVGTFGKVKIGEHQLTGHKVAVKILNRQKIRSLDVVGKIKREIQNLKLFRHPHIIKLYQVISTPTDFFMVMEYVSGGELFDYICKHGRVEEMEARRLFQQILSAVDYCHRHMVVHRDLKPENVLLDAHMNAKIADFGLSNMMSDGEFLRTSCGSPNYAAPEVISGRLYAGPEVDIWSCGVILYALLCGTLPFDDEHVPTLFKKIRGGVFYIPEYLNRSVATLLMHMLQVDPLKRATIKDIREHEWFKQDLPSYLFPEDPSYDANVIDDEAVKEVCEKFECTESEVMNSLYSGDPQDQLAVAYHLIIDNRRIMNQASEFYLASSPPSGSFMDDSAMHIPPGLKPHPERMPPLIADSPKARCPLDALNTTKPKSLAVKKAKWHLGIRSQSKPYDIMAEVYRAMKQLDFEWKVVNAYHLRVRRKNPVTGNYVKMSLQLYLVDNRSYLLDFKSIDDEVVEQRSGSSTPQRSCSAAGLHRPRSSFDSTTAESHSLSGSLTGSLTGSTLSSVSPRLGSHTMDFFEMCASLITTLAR

Turning to `c1ccc(-c2n[nH]cc2-c2ccnc3ccccc23)nc1`, the inhibition with PRKACA (mouse) turned out to be 1%; against PRKAA2 (human) it was 0%; at PRKAA1 (human), 0%; against FGFR1 (human) it was 9%; against PIM1 (human) it was 11%; at AKT1 (human), 0%.
Consider `O=C1NC(=O)c2cc(Nc3ccc(F)cc3)c(Nc3ccc(F)cc3)cc21`, for which the inhibition came out at 13% in the experiment with PRKACA (mouse); 0% at PRKAA2 (human); 0% against PRKAA1 (human); 19% at FGFR1 (human); 60% against PIM1 (human); 15% at AKT1 (human).
For the molecule `CC(=O)c1c(O)c(C)c(O)c(Cc2c(O)c3c(c(C(=O)/C=C/c4ccccc4)c2O)OC(C)(C)C=C3)c1O`, the inhibition amounted to 16% with PRKACA (mouse); 0% against PRKAA2 (human); 0% against PRKAA1 (human); 45% against FGFR1 (human); 21% on PIM1 (human); 24% on AKT1 (human).
For the molecule `O=C(c1ccc(Nc2nccc(-c3cc4ccccc4s3)n2)cc1)N1CCC(N2CCCC2)CC1`, the inhibition was determined as 12% in the experiment on PRKACA (mouse); 75% at PRKAA2 (human); 63% on PRKAA1 (human); 30% against FGFR1 (human); 22% on PIM1 (human); 0% on AKT1 (human).
Consider `O=C1Nc2ccc(I)cc2/C1=C/c1cc(Br)c(O)c(Br)c1`, for which the inhibition with PRKACA (mouse) came to 9%; against PRKAA2 (human), 0%; at PRKAA1 (human) it was 0%; on FGFR1 (human) it was 32%; against PIM1 (human), 73%; against AKT1 (human), 19%.
For the molecule `COc1ccc(C(=O)Nc2sc3c(c2C(N)=O)CCCC3)cc1OC`, the inhibition with PRKACA (mouse) turned out to be 12%; against PRKAA2 (human) it was 0%; at PRKAA1 (human), 9%; on FGFR1 (human) it was 9%; at PIM1 (human), 0%; against AKT1 (human), 0%.
For `NC1N[N](=Cc2coc3ccccc3c2=O)->[Cu]([Cl])([Cl])[SH]=1`, the inhibition worked out at 7% in the experiment with PRKACA (mouse); 4% against PRKAA2 (human); 16% against PRKAA1 (human); 11% against FGFR1 (human); 0% against PIM1 (human); 27% against AKT1 (human).
Consider `COc1cc2ncnc(Nc3ccc(F)c(Cl)c3)c2cc1OCCCN1CCOCC1`, for which the inhibition was 1% in the experiment with PRKACA (mouse); 0% on PRKAA2 (human); 0% at PRKAA1 (human); 13% against FGFR1 (human); 27% on PIM1 (human); 0% against AKT1 (human).
Regarding `CC(C)N(CCC(=O)c1ccc2ccccc2c1)Cc1ccccc1`, the inhibition in the experiment on PRKACA (mouse) is 1%; on PRKAA2 (human), 0%; on PRKAA1 (human) it was 0%; against FGFR1 (human), 0%; on PIM1 (human), 0%; against AKT1 (human), 0%.
Regarding `COc1cc2ncn(-c3cc(OCc4ccccc4C(F)(F)F)c(C(N)=O)s3)c2cc1OC`, the inhibition in the experiment on PRKACA (mouse) stood at 14%; on PRKAA2 (human) it was 7%; against PRKAA1 (human), 7%; against FGFR1 (human), 57%; at PIM1 (human), 31%; on AKT1 (human), 12%.
As for `COc1cc2c(Nc3ccc(NC(=O)c4ccccc4)cc3)ncnc2cc1OCCCN1CCOCC1`, the inhibition with PRKACA (mouse) amounted to 7%; against PRKAA2 (human) it was 0%; against PRKAA1 (human), 0%; against FGFR1 (human), 15%; against PIM1 (human), 8%; against AKT1 (human), 9%.
For the molecule `CCN(CC)CCNC(=O)c1c(C)[nH]c(/C=C2\C(=O)Nc3ccc(F)cc32)c1C`, the inhibition with PRKACA (mouse) was found to be 2%; at PRKAA2 (human), 84%; on PRKAA1 (human), 82%; against FGFR1 (human) it was 50%; on PIM1 (human) it was 0%; against AKT1 (human), 28%.
With `COc1cc2nccc(Oc3ccc(NC(=O)Nc4ccc(F)cc4F)c(F)c3)c2cc1OC`, the inhibition was 16% with PRKACA (mouse); 0% on PRKAA2 (human); 0% against PRKAA1 (human); 68% at FGFR1 (human); 12% on PIM1 (human); 6% at AKT1 (human).
Take `CCN(CC)CCCCN1c2ccccc2Oc2ccc(Cl)cc21`: the inhibition with PRKACA (mouse), against PRKAA2 (human), on PRKAA1 (human), at FGFR1 (human) and on AKT1 (human) was 0% in each case.
Consider `CC1=C(O)C(=O)[C@@H]2OC2C1=O` (stereo partly specified), for which the inhibition turned out to be 0% in the experiment on PRKACA (mouse); 0% at PRKAA2 (human); 0% against PRKAA1 (human); 3% against FGFR1 (human); 5% against PIM1 (human); 0% at AKT1 (human).
Regarding `O=S(=O)(NCCNC/C=C/c1ccc(Br)cc1)c1cccc2cnccc12`, the inhibition against PRKAA2 (human) is 22%; at PRKAA1 (human), 17%; on FGFR1 (human), 14%; against PIM1 (human) it was 0%; on AKT1 (human), 21%.
For the molecule `CC(C)(C)n1nc(-c2cccc3ccccc23)c2c(N)ncnc21`, the inhibition in the experiment on PRKACA (mouse) was found to be 32%; at PRKAA2 (human), 1%; against PRKAA1 (human), 1%; on FGFR1 (human), 60%; on PIM1 (human) it was 9%; on AKT1 (human) it was 18%.
`O=S(=O)(c1cccc2cnccc12)N1CCCNCC1`: the inhibition at PRKAA2 (human) came to 0%; against PRKAA1 (human) it was 0%; against FGFR1 (human), 4%; on PIM1 (human), 4%; against AKT1 (human), 0%.
For `NC(=O)c1sc(-c2ccsc2)cc1N`, the inhibition in the experiment on PRKACA (mouse) stood at 0%; against PRKAA2 (human), 0%; at PRKAA1 (human), 1%; at FGFR1 (human) it was 0%; against PIM1 (human), 0%; on AKT1 (human), 0%.
With `N#C/C(=C(/N)Sc1ccc(N)cc1)c1ccccc1C(F)(F)F`, the inhibition in the experiment on PRKACA (mouse) is 2%; against PRKAA2 (human), 0%; on PRKAA1 (human), 0%; against FGFR1 (human), 0%; against PIM1 (human) it was 5%; against AKT1 (human), 0%.
Consider `CO[C@@H]1[C@H](N(C)C(=O)c2ccccc2)C[C@H]2O[C@]1(C)n1c3ccccc3c3c4c(c5c6ccccc6n2c5c31)C(=O)NC4`, for which the inhibition in the experiment with PRKACA (mouse) was 63%; against PRKAA1 (human), 64%; against PIM1 (human), 73%; on AKT1 (human), 55%.
With `CC(C)[C@H](CO)Nc1nc(Nc2cc(N)cc(Cl)c2)c2ncn(C(C)C)c2n1`, the inhibition in the experiment with PRKACA (mouse) stood at 13%; against PRKAA2 (human), 3%; against PRKAA1 (human), 5%; against PIM1 (human) it was 6%; against AKT1 (human) it was 0%.
With `CN(C)CCCn1cc(C2=C(c3c[nH]c4ccccc34)C(=O)NC2=O)c2ccccc21`, the inhibition in the experiment with PRKACA (mouse) was 26%; against PRKAA2 (human) it was 20%; at PRKAA1 (human), 11%; at FGFR1 (human), 50%; against AKT1 (human), 5%.
Regarding `O=S(=O)(c1cccc2c(O)nccc12)N1CCCNCC1`, the inhibition in the experiment on PRKACA (mouse) is 19%; on PRKAA2 (human) it was 0%; at PRKAA1 (human), 0%; at PIM1 (human), 19%; on AKT1 (human), 0%.

In general, inhibition refers to the share of the control response that was lost under treatment. A low value points to a response near the control.
